Active and inactive are the calls of the source. The calls are words filed in the database; no cut-off is given here.
Assays:
[1] = Cytotoxicity against human HepG2 cells; assay type: toxicity, cell-based
[2] = test system: Plasmodium falciparum; experiment: Antimalarial activity against […] infected in human RBC assessed as inhibition of plasmodial growth at 1 uM by SYBR green dye based spectrofluorometric analysis relative to control; assay type: functional; details: 3D7, Erythrocyte
[3] = test system: Plasmodium falciparum; experiment: Antimalarial activity against […] infected in human RBC assessed as inhibition of plasmodial growth at 10 uM by SYBR green dye based spectrofluorometric analysis relative to control; assay type: functional; details: 3D7, Erythrocyte
[4] = test system: Plasmodium falciparum; experiment: Antimalarial activity against chloroquine-sensitive synchronized late stage trophozoite Plasmodium falciparum 3D7 infected in human RBC assessed as inhibition of plasmodial growth by giemsa staining based analysis; assay type: functional, organism-based; details: 3D7, Erythrocyte
[5] = test system: Plasmodium falciparum; experiment: Antimalarial activity against chloroquine-resistant synchronized late stage trophozoite Plasmodium falciparum RKL-9 infected in human RBC assessed as inhibition of plasmodial growth by giemsa staining based analysis; assay type: functional, organism-based; details: RKL-9, Erythrocyte
[6] = test system: Plasmodium falciparum; experiment: Antimalarial activity against chloroquine-resistant Plasmodium falciparum RKL-9 infected in human RBC assessed as reduction of plasmodial growth by SYBR green dye based spectrofluorometric analysis; assay type: functional, organism-based
[7] = test system: Erythrocyte; experiment: Hemolytic activity in human RBC assessed as hemolysis upto 5 uM incubated for 2 hrs; assay type: toxicity, cell-based
[8] = Therapeutic index, ratio of CC50 for human HepG2 cells to IC50 for chloroquine-sensitive synchronized late stage trophozoite Plasmodium falciparum 3D7 infected in human RBC; assay type: toxicity; details: read-out: TI
[9] = Cytotoxicity against […] cell upto 500 uM; assay type: toxicity, cell-based; details: human
[10] = test system: Plasmodium falciparum; experiment: Antiplasmodial activity against synchronized ring stage Plasmodium falciparum 3D7 infected in human RBC assessed as reduction in transformation into pyknotic trophozoites by measuring delay in ring maturation at IC50 concentration measured after 60 hrs by giemsa staining based light microscopic analysis; assay type: functional, organism-based
[11] = test system: Plasmodium falciparum; experiment: Induction of mitochondrial membrane depolarization in trophozoite stage Plasmodium falciparum 3D7 infected in human RBC assessed as increase in green fluorescence at IC50 concentration incubated for 3 hrs by JC-1 dye based fluorescence microscopic analysis; assay type: functional, organism-based
[12] = test system: Plasmodium falciparum; experiment: Induction of mitochondrial membrane depolarization in trophozoite stage Plasmodium falciparum 3D7 infected in human RBC assessed as decrease in red to green fluorescence ratio at IC50 concentration incubated for 3 hrs by JC-1 dye based fluorescence microscopic analysis; assay type: functional, organism-based
[13] = test system: Plasmodium falciparum; experiment: Induction of mitochondrial membrane depolarization in trophozoite stage Plasmodium falciparum 3D7 infected in human RBC assessed as red to green fluorescence ratio at IC50 concentration incubated for 3 hrs by JC-1 dye based spectrofluorometric analysis (reference value: 6.96+/-0.94); assay type: functional
[14] = test system: Plasmodium falciparum; experiment: Synergistic antimalarial activity against synchronized ring stage Plasmodium falciparum 3D7 infected in human RBC assessed as mean fractional inhibitory concentration at 1:1 ratio of ART to compound incubated for 72 hrs by giemsa staining based flow cytometric analysis; assay type: functional
[15] = test system: Plasmodium berghei; experiment: Antimalarial activity against Plasmodium berghei ANKA in BALB/c mouse injected with parasite infected erythrocytes assessed as decrease in parasite load at 30 mg/kg, ip administered daily for 7 days relative to control; assay type: functional; design: scale not given: the % may be the effect or the level left; details: time 7 day
[16] = test system: Plasmodium berghei; experiment: Antimalarial activity against Plasmodium berghei ANKA in BALB/c mouse injected with parasite infected erythrocytes assessed as reduction in parasitemia at 30 mg/kg, ip administered daily for 7 days and measured after 15 days; assay type: functional, organism-based; details: time 15.0 day
[17] = test system: Plasmodium berghei; experiment: Antimalarial activity against Plasmodium berghei ANKA in BALB/c mouse injected with parasite infected erythrocytes assessed as […] mean survival time at 30 mg/kg, ip administered daily for 7 days and measured after 15 days; assay type: functional; details: time 15 day
[18] = test system: Plasmodium falciparum; experiment: Antiplasmodial activity against […] incubated for 90 hrs by SYBR green I dye based analysis; assay type: functional, organism-based; details: 3D7, 90 h
[19] = Cytotoxicity against human U-937 cells assessed as reduction in cell viability incubated for 24 hrs by MTT assay; assay type: toxicity, cell-based
[20] = test system: Plasmodium falciparum; experiment: Antiplasmodial activity against Plasmodium falciparum 3D7; assay type: functional, organism-based
[21] = Cytotoxicity against human U-937 cells; assay type: toxicity, cell-based
[22] = test system: Plasmodium falciparum; experiment: Synergistic antimalarial activity against synchronized ring stage Plasmodium falciparum 3D7 infected in human RBC assessed as mean fractional inhibitory concentration at 1:4 ratio of ART to compound incubated for 72 hrs by giemsa staining based flow cytometric analysis; assay type: functional

Structure (SMILES): CC(C)[C@H](c1nc2ccccc2n1Cc1cn(-c2ccc(C(F)(F)F)cc2)nn1)N1C(=O)c2ccccc2C1=O
- IC50 [1]: > 100000 nM
- inhibition at 1 µM [2]: 22%
- inhibition at 10 µM [3]: 75%
- IC50 [4]: 2300 nM
- IC50 [5]: 3920 nM
- Activity [6]: Dose dependent effect
- Activity [7]: Non-Toxic
- selectivity ratio [8]: 43
- Activity [9]: Non-Toxic
- Activity [10]: Active
- Activity [11]: Active
- Activity [12]: Active
- Activity [13]: 5.06
- FIC [14]: 0.93
- Activity [15]: 3.9%
- Activity [16]: Active
- MST [17]: 10.47 days

Structure (SMILES): CCC(C)[C@H](c1nc2ccccc2n1Cc1cn(-c2ccccc2F)nn1)N1C(=O)c2ccc(C)cc2C1=O (stereo not given in full)
- inhibition at 1 µM [2]: -23%
- inhibition at 10 µM [3]: 91%

Structure (SMILES): CC(C)C[C@H](c1nc2ccccc2n1Cc1cn(-c2ccc(C(F)(F)F)cc2)nn1)N1C(=O)c2ccccc2C1=O
- inhibition at 1 µM [2]: -53%
- inhibition at 10 µM [3]: 88%

Structure (SMILES): CC(C)CC(c1nc2ccccc2n1Cc1cn(-c2ccccc2)nn1)N1C(=O)c2ccccc2C1=O (stereo not given)
- IC50 [18]: 900 nM
- CC50 at 24 h [19]: 910 nM

Structure (SMILES): COc1ccc(-n2cc(Cn3c([C@@H](CC(C)C)N4C(=O)c5ccc(C)cc5C4=O)nc4ccccc43)nn2)cc1
- inhibition at 1 µM [2]: -43%
- inhibition at 10 µM [3]: 65%

Structure (SMILES): CCC(C)[C@H](c1nc2ccccc2n1Cc1cn(-c2ccc(F)cc2)nn1)N1C(=O)c2ccccc2C1=O (stereo not given in full)
- IC50 [20]: 900 nM
- CC50 [21]: 28800 nM

Structure (SMILES): CCC(C)C(c1nc2ccccc2n1Cc1cn(-c2ccc(F)cc2)nn1)N1C(=O)c2ccccc2C1=O (stereo not given)
- IC50 [18]: 900 nM
- CC50 at 24 h [19]: 28800 nM

Structure (SMILES): CCC(C)[C@H](c1nc2ccccc2n1Cc1cn(-c2c(F)c(F)c(F)c(F)c2F)nn1)N1C(=O)c2ccccc2C1=O (stereo not given in full)
- inhibition at 1 µM [2]: -44%
- inhibition at 10 µM [3]: 77%

Structure (SMILES): CC(C)[C@H](c1nc2ccccc2n1Cc1cn(-c2ccc(F)cc2F)nn1)N1C(=O)c2ccccc2C1=O
- inhibition at 1 µM [2]: -12%
- inhibition at 10 µM [3]: 88%

Structure (SMILES): CCC(C)[C@H](c1nc2ccccc2n1Cc1cn(-c2ccccc2F)nn1)N1C(=O)c2ccccc2C1=O (stereo not given in full)
- inhibition at 1 µM [2]: 8%
- inhibition at 10 µM [3]: 87%

Structure (SMILES): CCC(C)[C@H](c1nc2ccccc2n1Cc1cn(Cc2ccccc2)nn1)N1C(=O)c2ccccc2C1=O (stereo not given in full)
- IC50 [1]: > 100000 nM
- inhibition at 1 µM [2]: 35%
- inhibition at 10 µM [3]: 66%
- IC50 [4]: 810 nM
- IC50 [5]: 1880 nM
- Activity [6]: Dose dependent effect
- Activity [7]: Non-Toxic
- selectivity ratio [8]: 123
- Activity [9]: Non-Toxic
- Activity [10]: Active
- Activity [11]: Active
- Activity [12]: Active
- FIC [22]: 0.67

Structure (SMILES): Cc1ccc2c(c1)C(=O)N([C@H](CC(C)C)c1nc3ccccc3n1Cc1cn(-c3ccc(F)cc3)nn1)C2=O
- inhibition at 1 µM [2]: 0.3%
- inhibition at 10 µM [3]: 46%
